Converted amounts (≈) assume the structure as drawn. Where two headings read alike, the source gives them in different places.
What was measured:
[1] = cyclodextrins; values taken from Sabadini et al.; 25°C; cited from earlier work
[2] = Solubility of the organic additives in water; settings: for solubility: water, 25 °C, thermodynamic from solid
Excerpt: For the determination of the solubility of the organic additives described herein, the GC-based method described above in connection with the solubilities of the monomers may be used. […] The method is basically measuring residual amount of CD in a saturated solution after drying.

Row | Compound | Solubility in water [1] [mg/mL] | solubility [2] [mg/mL] | also measured
1 | OC[C@H]1O[C@@H]2O[C@H]3[C@H](O)[C@@H](O)[C@@H](O[C@H]4[C@H](O)[C@@H](O)[C@@H](O[C@H]5[C@H](O)[C@@H](O)[C@@H](O[C@H]6[C@H](O)[C@@H](O)[C@@H](O[C@H]7[C@H](O)[C@@H](O)[C@@H](O[C@H]1[C@H](O)[C@H]2O)O[C@@H]7CO)O[C@@H]6CO)O[C@@H]5CO)O[C@@H]4CO)O[C@@H]3CO [α-cyclodextrin] | 129.5 (≈ 133 mM) | – | –
2 | CC(=O)OCC(COC(C)=O)OC(C)=O [1,2,3-propanetriol triacetate] | – | 72 | –
3 | OCCCCO [1,4-butandiol] | – | – | Solubility in water ([2]; additives other than cyclodextrins, 25°C): miscible
4 | CCCCCCCO [Heptanol] | – | 1.74 (≈ 15 mM) | –
5 | OC[C@H]1O[C@@H]2O[C@H]3[C@H](O)[C@@H](O)[C@@H](O[C@H]4[C@H](O)[C@@H](O)[C@@H](O[C@H]5[C@H](O)[C@@H](O)[C@@H](O[C@H]6[C@H](O)[C@@H](O)[C@@H](O[C@H]7[C@H](O)[C@@H](O)[C@@H](O[C@H]8[C@H](O)[C@@H](O)[C@@H](O[C@H]9[C@H](O)[C@@H](O)[C@@H](O[C@H]1[C@H](O)[C@H]2O)O[C@@H]9CO)O[C@@H]8CO)O[C@@H]7CO)O[C@@H]6CO)O[C@@H]5CO)O[C@@H]4CO)O[C@@H]3CO [γ-cyclodextrin] | 249.2 (≈ 192 mM) | – | –
6 | CCCCCO [1-pentanol] | – | 22.4 (≈ 254 mM) | –
